Experimental data from PubChem BioAssay AID2384 (Southern Research Specialized Biocontainment Screening …, 2010).

Each compound was assayed on S. typhi GFP reporter counter-screen, fluorescence, 4 h (assay: inhibitors in S. typhi counter-screen strain, dose response, counter-screen for PhoP regulon inhibitor project, fluorescence, 4 h (AID 2384)).
Work on `c1ccc(CN2CCC(Nc3nc(-c4ccccc4)nc4ccccc34)CC2)cc1` yielded an IC50 of 38 µM.
Work on `O=C(COc1ccc(Br)cc1CNCCc1ccccc1)NCc1ccccc1` yielded an IC50 of 105 µM.
In the case of `O=C1NCCN1c1ncc([N+](=O)[O-])s1`, the IC50 is reported as 28.2 µM.
With `N/C(=N\OS(=O)(=O)c1ccc2ccccc2c1)c1cccnc1` the IC50 was 17.3 µM.
In the case of `Fc1ccc(Nc2nnc(C(F)(F)F)s2)cc1Cl`, the IC50 is reported as 37.8 µM.
`CCn1cc(C(=O)NCCCN(C)C)c(=O)c2cc(F)c(N3CCN(C)CC3)cc21` was tested, and the IC50 was 96.4 µM.
For `N#C/C(=C(/O)c1ccco1)c1nc2ccccc2s1`, the IC50 was 57.6 µM.
`CCN1CCN(CCNC(=O)c2ccc3c(c2)N(Cc2ccc(F)cc2)C(=O)/C(=C/c2ccccc2)S3)CC1` gave an IC50 of 45.5 µM.
`CCc1cccc2c1Sc1ccccc1CC2N1CCNCC1` (stereo not drawn) gave an IC50 of 39.3 µM.
For `COC(=O)C1C(O)C(C)C(O)C(C)(O)/C=C\C=C(/C)C(=O)Nc2c(C)c(OC(C)=O)c3c(c2O)C(=O)C(C)=C2OCOC(=C23)/C(C)=C/C(C)(O)C(O)C(C)C1O` (stereo not drawn), the IC50 was 23.9 µM.
Work on `C[C@H]1O[C@@H](n2cc(F)c(=O)[nH]c2=O)[C@H](O)[C@@H]1O` yielded an IC50 of 63.7 µM.
`C=CCc1cc(Cl)ccc1OCCCNCCO` was tested, and the IC50 was 94.2 µM.
Compound `Clc1ccc2c(c1)C(N1CCNCC1)Cc1ccccc1S2` (stereo not drawn) has an IC50 of 35.1 µM.
`CN1CCN(C(c2ccc(Cl)cc2)c2cc(Cl)c3cccnc3c2O)CC1` (stereo not drawn) was tested, and the IC50 was 19.7 µM.
Compound `O=C(N/N=C/c1ccc(O)c(O)c1)C1c2ccccc2Oc2ccccc21` has an IC50 of 64.8 µM.
For `O=C(CCN1CCN(c2ccccc2)CC1)c1ccc(Br)cc1`, the IC50 was 70.1 µM.
Work on `CN1CCC(OC(=O)c2cccc(Br)c2)CC1` yielded an IC50 of 55.9 µM.
In the case of `C#CCOCCOCCOCCNc1nc(N2CCN(C(=O)CCCCCCCCCCNC(=O)[C@H](CCCCN)n3cc(C)nn3)CC2)nc(N2CCN(C(=O)CCCCCCCCCCNC(=O)[C@H](CO)n3cc(CCCSC)nn3)CC2)n1`, the IC50 is reported as 130 µM.
For `O=c1[nH]c(=S)ccn1C1OC(CO)C(O)C1O` (stereo not drawn), the IC50 was 12.4 µM.
In the case of `O=C(Cn1cnc2ccccc21)Nc1ccc(SC(F)F)cc1`, the IC50 is reported as 143 µM.
For `C/C(O)=C\c1nc2ccccc2oc1=O`, the IC50 was 41.6 µM.
`CSc1nc2ccc(Cl)cc2[nH]1` was tested, and the IC50 was 73.6 µM.
With `Cc1c(CN(C)C)c2c(n1Cc1ccccc1)C(=O)c1ccc(Br)cc1-2` the IC50 was 47.2 µM.
With `Cc1cc(N/N=C/c2ccc(O)cc2)c2cccc(C)c2n1` the IC50 was 47.5 µM.
Work on `COc1ccc(C(=O)NNC(=S)NC(=O)c2ccccc2)cc1` yielded an IC50 of 94 µM.
`CC(C(=O)c1ccc(-c2ccccc2)cc1)[n+]1cccc(NC(=O)c2ccccc2)c1` (stereo not drawn) gave an IC50 of 19.4 µM.
`O=C(Cn1nc(CNc2ccc(Br)cc2)[n+]2c1CCCCC2)c1ccc([N+](=O)[O-])cc1` was tested, and the IC50 was 35 µM.
With `O=C(O)c1csc(-c2ccc(Cl)cc2)n1` the IC50 was 120 µM.
`CC1=NOC(=O)/C1=C/c1ccc(O)cc1` showed an IC50 of 146 µM.
Work on `NC1=NC[C@H](c2ccccc2)N1CCCCC1CCCCC1` yielded an IC50 of 28.9 µM.
In the case of `COC(=O)C(C)NC(=S)N1CCN(c2c(F)cc3c(=O)c(C(=O)O)cn(C4CC4)c3c2OC)CC1C` (stereo not drawn), the IC50 is reported as 39.6 µM.
In the case of `Cc1cc(/C=C\c2ccc3cc(N(C)C)ccc3[n+]2C)c(C)n1-c1ccccc1`, the IC50 is reported as 21.7 µM.
Compound `OCCNc1nc(Nc2ccccc2)nc2ccccc12` has an IC50 of 22.4 µM.
With `c1ccc(Sc2cccc3ccccc23)c(CNC2=NCCN2)c1` the IC50 was 40.1 µM.
For `O=C(Nc1cccc(N=Cc2cc(Cl)cc(Br)c2O)c1)c1ccco1`, the IC50 was 60 µM.
For `Cc1ccc(C(=O)NNC(=S)NC(=O)c2ccccc2)cc1`, the IC50 was 57.8 µM.
`Cc1ccc(NC(=O)c2ccccc2)s1` gave an IC50 of 110 µM.
Work on `OCCN1CCN(C2CCC(c3ccc(F)cc3)c3ccc(F)cc32)CC1` (stereo not drawn) yielded an IC50 of 15.9 µM.
`O=C(Nc1cccc([N+](=O)[O-])c1)Nc1cccs1` was tested, and the IC50 was 38.9 µM.
`Fc1ccc([C@@H]2CCNC[C@H]2COc2ccc3c(c2)OCO3)cc1` was tested, and the IC50 was 19.2 µM.
In the case of `CCOc1cccc(CNCCc2c(C)[nH]c3ccc(OC(F)(F)F)cc23)c1O`, the IC50 is reported as 31.2 µM.
Work on `OCCN1CCN(CCCN2c3ccccc3Sc3ccc(C(F)(F)F)cc32)CC1` yielded an IC50 of 75.1 µM.
In the case of `Nc1cc(=O)[nH]c(=S)n1-c1cccc(C(F)(F)F)c1`, the IC50 is reported as 145 µM.
In the case of `O=C(N/N=C\C=C\c1ccc([N+](=O)[O-])o1)c1cccs1`, the IC50 is reported as 11 µM.
`O=C(CNCCC1=CCCCC1)Nc1ccc(N2CCCCCC2)cc1` gave an IC50 of 24.7 µM.
`COc1ccc(C(=O)NC(=S)NNC(=O)c2cccc(C)c2)cc1` was tested, and the IC50 was 48.8 µM.
For `CC(NCc1ccc(Cl)c(Cl)c1)C(O)c1ccccc1` (stereo not drawn), the IC50 was 29.8 µM.
`CNCCCC1Sc2ccccc2Oc2ccccc21` (stereo not drawn) was tested, and the IC50 was 46.4 µM.
